Test results as given in patent US20250051356A1, “RIFABUTIN ANALOGS FOR THE TREATMENT OF DISEASE” (priority 2021, published 2025).
In brackets after ≈: the same amount, converted by molar mass. Where two headings read alike, the source gives them in different places.

Columns and labels:
Format in all cases: cell-based
[1] = system: S. aureus (UAMS-1625 strain); experiment: MIC by broth microdilution against S. aureus; conditions: Staphylococcus aureus, read-out: MIC S. aureus
[2] = system: A. baumannii (HUMC1 strain); experiment: MIC by broth microdilution against A. baumannii in RPMI + 10% FCS; conditions: Acinetobacter baumannii, read-out: MIC A. baumannii
[3] = system: M. abscessus subsp. abscessus ATCC 19977; experiment: MIC against M. abscessus in Middlebrook 7H9 + ADC; conditions: Mycobacteroides abscessus
[4] = system: M. kansasii (ATCC 12478); experiment: MIC against M. kansasii in CAMHB + ADC; conditions: Mycobacterium kansasii
[5] = system: M. xenopi (ATCC 19250); experiment: MIC against M. xenopi in CAMHB + ADC; conditions: Mycobacterium xenopi
[6] = system: M. avium (ATCC 25291); experiment: MIC against M. avium in CAMHB + ADC; conditions: Mycobacterium avium
[7] = ATCC19977, ATCC 19977, 7H9 + ADC, read-out: MIC M. abscessus
[8] = ATCC12478, ATCC 12478, CAMHB + ADC (5%), read-out: MIC M. kansasii
[9] = ATCC19250, ATCC 19250, CAMHB + ADC (5%), read-out: MIC M. xenopi
[10] = ATCC25291, ATCC 25291, CAMHB + ADC (5%), read-out: MIC M. avium
[11] = ATCC19977, read-out: MIC M. abscessus
[12] = ATCC12478, read-out: MIC M. kansasii

Structure (SMILES)	MIC [1]	MIC ([2]; HUMC1 strain, RPMI + 10% FCS)	MIC [3, 7]	MIC [4, 8]	MIC [5, 9]	MIC [6, 10]	MIC [3, 11]	MIC [2]	MIC [4, 12]	MIC ([5]; ATCC19250, read-out: MIC M. xenopi)	MIC ([6]; ATCC25291, read-out: MIC M. avium)
CO[C@H]1/C=C/O[C@@]2(C)Oc3c(C)c(O)c4c(c3C2=O)C2=NC3(CCN(CC(C)C)CC3)NC2=C(NC(=O)/C(C)=C\C=C\[C@H](C)[C@H](O)[C@@H](C)[C@@H](O)[C@@H](C)[C@H](OC(=O)CC(=O)N2CCCN(c3nccc(C(F)(F)F)n3)CC2)[C@@H]1C)C4=O [Compound 125]	0.5 µg/mL (≈ 0.447 µM)	0.25 µg/mL	0.125 µg/mL	0.008 µg/mL	0.06 µg/mL	0.03 µg/mL					
CO[C@H]1/C=C/O[C@@]2(C)Oc3c(C)c(O)c4c(c3C2=O)C2=NC3(CCN(CC(C)C)CC3)NC2=C(NC(=O)/C(C)=C\C=C\[C@H](C)[C@H](O)[C@@H](C)[C@@H](O)[C@@H](C)[C@H](OC(=O)CC(=O)N2CCN(c3ncccn3)CC2)[C@@H]1C)C4=O [Compound 117]	0.03 µg/mL (≈ 0.0289 µM)	≤ 0.002 µg/mL	0.125 µg/mL	0.004 µg/mL	0.125 µg/mL	0.25 µg/mL					
CO[C@H]1/C=C/O[C@@]2(C)Oc3c(C)c(O)c4c(c3C2=O)C2=NC3(CCN(CC(C)C)CC3)NC2=C(NC(=O)/C(C)=C\C=C\[C@H](C)[C@H](O)[C@@H](C)[C@@H](O)[C@@H](C)[C@H](OC(=O)CC(=O)N2CCC(N(C)c3ccccc3)CC2)[C@@H]1C)C4=O [Compound 14]	0.5 µg/mL (≈ 0.47 µM)	0.06 µg/mL	0.125 µg/mL	0.002 µg/mL	0.03 µg/mL	0.06 µg/mL					
CO[C@H]1/C=C/O[C@@]2(C)Oc3c(C)c(O)c4c(c3C2=O)C2=NC3(CCN(CC(C)C)CC3)NC2=C(NC(=O)/C(C)=C\C=C\[C@H](C)[C@H](O)[C@@H](C)[C@@H](O)[C@@H](C)[C@H](OC(=O)CC(=O)N2CCC(CCc3ccccc3)CC2)[C@@H]1C)C4=O [Compound 56]	2 µg/mL (≈ 1.88 µM)	0.03 µg/mL	0.25 µg/mL	0.03 µg/mL	0.06 µg/mL	0.5 µg/mL					
CO[C@H]1/C=C/OC2(C)Oc3c(C)c(O)c4c(c3C2=O)C2=NC3(CCN(CC(C)C)CC3)NC2=C(NC(=O)/C(C)=C\C=C\[C@H](C)[C@H](O)[C@@H](C)[C@@H](O)[C@@H](C)[C@H](OC(=O)CCCC(=O)N2CCCN(c3ccc(F)cc3)CC2)[C@@H]1C)C4=O (some centres unmarked) [Compound 86]	0.5 µg/mL (≈ 0.456 µM)	0.008 µg/mL	0.125 µg/mL	0.008 µg/mL	0.03 µg/mL	0.125 µg/mL					
CO[C@H]1/C=C/O[C@@]2(C)Oc3c(C)c(O)c4c(c3C2=O)C2=NC3(CCN(CC(C)C)CC3)NC2=C(NC(=O)/C(C)=C\C=C\[C@H](C)[C@H](O)[C@@H](C)[C@@H](O)[C@@H](C)[C@H](OC(=O)CC(=O)N2CCCN(Cc3ccccc3)CC2)[C@@H]1C)C4=O [Compound 126]	0.125 µg/mL (≈ 0.118 µM)	0.004 µg/mL		0.004 µg/mL	0.03 µg/mL	0.03 µg/mL	0.125 µg/mL				
CO[C@H]1/C=C/O[C@@]2(C)Oc3c(C)c(O)c4c(c3C2=O)C2=NC3(CCN(CC(C)C)CC3)NC2=C(NC(=O)/C(C)=C\C=C\[C@H](C)[C@H](O)[C@@H](C)[C@@H](O)[C@@H](C)[C@H](OC(=O)CC(=O)N2CCN(Cc3ccncc3)CC2)[C@@H]1C)C4=O [Compound 119]	0.016 µg/mL (≈ 0.0152 µM)	≤ 0.002 µg/mL	0.25 µg/mL	0.008 µg/mL	0.25 µg/mL	1 µg/mL					
CO[C@H]1/C=C/O[C@@]2(C)Oc3c(C)c(O)c4c(c3C2=O)C2=NC3(CCN(CC(C)C)CC3)NC2=C(NC(=O)/C(C)=C\C=C\[C@H](C)[C@H](O)[C@@H](C)[C@@H](O)[C@@H](C)[C@H](OC(=O)C(C)C(=O)N2CCCN(c3ccc(F)cc3)CC2)[C@@H]1C)C4=O (some centres unmarked) [Compound 108]	0.25 µg/mL (≈ 0.231 µM)	0.06 µg/mL	0.25 µg/mL	0.008 µg/mL	0.06 µg/mL	0.25 µg/mL					
CO[C@H]1/C=C/O[C@@]2(C)Oc3c(C)c(O)c4c(c3C2=O)C2=NC3(CCN(CC(C)C)CC3)NC2=C(NC(=O)/C(C)=C\C=C\[C@H](C)[C@H](O)[C@@H](C)[C@@H](O)[C@@H](C)[C@H](OC(=O)CC(=O)N2CCN(Cc3ccccn3)CC2)[C@@H]1C)C4=O [Compound 118]	0.06 µg/mL (≈ 0.0571 µM)	≤ 0.002 µg/mL	0.25 µg/mL	0.03 µg/mL	0.25 µg/mL	2 µg/mL					
CO[C@H]1/C=C/O[C@@]2(C)Oc3c(C)c(O)c4c(c3C2=O)C2=NC3(CCN(CC(C)C)CC3)NC2=C(NC(=O)/C(C)=C\C=C\[C@H](C)[C@H](O)[C@@H](C)[C@@H](O)[C@@H](C)[C@H](OC(=O)CC(=O)N2CCC(Cc3ccccc3)CC2)[C@@H]1C)C4=O [Compound 50]	2 µg/mL (≈ 1.91 µM)						0.125 µg/mL	0.06 µg/mL	0.004 µg/mL	0.03 µg/mL	0.06 µg/mL
CO[C@H]1/C=C/O[C@@]2(C)Oc3c(C)c(O)c4c(c3C2=O)C2=NC3(CCN(CC(C)C)CC3)NC2=C(NC(=O)/C(C)=C\C=C\[C@H](C)[C@H](O)[C@@H](C)[C@@H](O)[C@@H](C)[C@H](OC(=O)CC(=O)N2CCCN(c3ccncc3)CC2)[C@@H]1C)C4=O [Compound 121]	0.125 µg/mL (≈ 0.119 µM)	≤ 0.002 µg/mL	0.25 µg/mL			2 µg/mL			0.125 µg/mL		
CO[C@H]1/C=C/O[C@@]2(C)Oc3c(C)c(O)c4c(c3C2=O)C2=NC3(CCN(CC(C)C)CC3)NC2=C(NC(=O)/C(C)=C\C=C\[C@H](C)[C@H](O)[C@@H](C)[C@@H](O)[C@@H](C)[C@H](OC(=O)CC(=O)N2CCC(N3CCn5ccnc5C3)CC2)[C@@H]1C)C4=O [Compound 62]	0.06 µg/mL (≈ 0.0556 µM)	≤ 0.002 µg/mL	1 µg/mL								
CO[C@H]1/C=C/O[C@@]2(C)Oc3c(C)c(O)c4c(c3C2=O)C2=NC3(CCN(CC(C)C)CC3)NC2=C(NC(=O)/C(C)=C\C=C\[C@H](C)[C@H](O)[C@@H](C)[C@@H](O)[C@@H](C)[C@H](OC(=O)CC(=O)NCCCN(C)C)[C@@H]1C)C4=O [Compound 29]	0.03 µg/mL (≈ 0.0308 µM)	≤ 0.002 µg/mL	1 µg/mL								
CO[C@H]1/C=C/O[C@@]2(C)Oc3c(C)c(O)c4c(c3C2=O)C2=NC3(CCN(CC(C)C)CC3)NC2=C(NC(=O)/C(C)=C\C=C\[C@H](C)[C@H](O)[C@@H](C)[C@@H](O)[C@@H](C)[C@H](OC(=O)CC(=O)NCCN(C)C)[C@@H]1C)C4=O [Compound 30]	0.03 µg/mL (≈ 0.0312 µM)	≤ 0.002 µg/mL	1 µg/mL								
CO[C@H]1/C=C/O[C@@]2(C)Oc3c(C)c(O)c4c(c3C2=O)C2=NC3(CCN(CC(C)C)CC3)NC2=C(NC(=O)/C(C)=C\C=C\[C@H](C)[C@H](O)[C@@H](C)[C@@H](O)[C@@H](C)[C@H](OC(=O)C(C)C(=O)N2CCN(c3ccccc3S(N)(=O)=O)CC2)[C@@H]1C)C4=O (some centres unmarked) [Compound 38]	0.25 µg/mL (≈ 0.222 µM)	0.008 µg/mL	0.5 µg/mL								
CO[C@H]1/C=C/O[C@@]2(C)Oc3c(C)c(O)c4c(c3C2=O)C2=NC3(CCN(CC(C)C)CC3)NC2=C(NC(=O)/C(C)=C\C=C\[C@H](C)[C@H](O)[C@@H](C)[C@@H](O)[C@@H](C)[C@H](OC(=O)CC(=O)Nc2ccc(CN3CCCCC3)cc2)[C@@H]1C)C4=O [Compound 18]	0.06 µg/mL (≈ 0.0564 µM)	≤ 0.002 µg/mL	1 µg/mL								
CO[C@H]1/C=C/O[C@@]2(C)Oc3c(C)c(O)c4c(c3C2=O)C2=NC3(CCN(CC(C)C)CC3)NC2=C(NC(=O)/C(C)=C\C=C\[C@H](C)[C@H](O)[C@@H](C)[C@@H](O)[C@@H](C)[C@H](OC(=O)CC(=O)N2CCC(N3CCCCC3)CC2)[C@@H]1C)C4=O [Compound 58]	0.03 µg/mL (≈ 0.0288 µM)	≤ 0.002 µg/mL	1 µg/mL								
CO[C@H]1/C=C/O[C@@]2(C)Oc3c(C)c(O)c4c(c3C2=O)C2=NC3(CCN(CC(C)C)CC3)NC2=C(NC(=O)/C(C)=C\C=C\[C@H](C)[C@H](O)[C@@H](C)[C@@H](O)[C@@H](C)[C@H](OC(=O)CC(=O)N2CCC(N3CCN(C)C(=O)C3)CC2)[C@@H]1C)C4=O [Compound 15]	0.016 µg/mL (≈ 0.0149 µM)	0.004 µg/mL	1 µg/mL								
CO[C@H]1/C=C/O[C@@]2(C)Oc3c(C)c(O)c4c(c3C2=O)C2=NC3(CCN(CC(C)C)CC3)NC2=C(NC(=O)/C(C)=C\C=C\[C@H](C)[C@H](O)[C@@H](C)[C@@H](O)[C@@H](C)[C@H](OC(=O)CC(=O)NC2CCN(C)CC2)[C@@H]1C)C4=O [Compound 6]	0.03 µg/mL (≈ 0.0304 µM)	≤ 0.002 µg/mL	1 µg/mL								
CO[C@H]1/C=C/O[C@@]2(C)Oc3c(C)c(O)c4c(c3C2=O)C2=NC3(CCN(CC(C)C)CC3)NC2=C(NC(=O)/C(C)=C\C=C\[C@H](C)[C@H](O)[C@@H](C)[C@@H](O)[C@@H](C)[C@H](OC(=O)CC(=O)N2CCN(CCN3CCCCC3)CC2)[C@@H]1C)C4=O [Compound 114]	0.125 µg/mL (≈ 0.117 µM)	≤ 0.002 µg/mL	0.5 µg/mL								
CO[C@H]1/C=C/O[C@@]2(C)Oc3c(C)c(O)c4c(c3C2=O)C2=NC3(CCN(CC(C)C)CC3)NC2=C(NC(=O)/C(C)=C\C=C\[C@H](C)[C@H](O)[C@@H](C)[C@@H](O)[C@@H](C)[C@H](OC(=O)CC(=O)OC2CCN(C)CC2)[C@@H]1C)C4=O [Compound 45]	0.06 µg/mL (≈ 0.0607 µM)	0.004 µg/mL	0.5 µg/mL								
CO[C@H]1/C=C/O[C@@]2(C)Oc3c(C)c(O)c4c(c3C2=O)C2=NC3(CCN(CC(C)C)CC3)NC2=C(NC(=O)/C(C)=C\C=C\[C@H](C)[C@H](O)[C@@H](C)[C@@H](O)[C@@H](C)[C@H](OC(=O)CC(=O)N2CCC(n3c(=O)[nH]c5cc(Cl)ccc53)CC2)[C@@H]1C)C4=O [Compound 47]	1 µg/mL (≈ 0.889 µM)	0.125 µg/mL	0.5 µg/mL								
